Reference: patent publication US5532229A, “Topical administration of vitamin D to mammals” (priority 1994, dated 1996)
Entries after “also recorded” stand apart in the source; their conditions may differ.

Key:
[1] = tested on: 24-hydroxylase; assay: Experiment 3: 24-hydroxylase in renal mitochondria; format: in vivo, rat; conditions: for Renal mitochondria 24-hydroxylase: 6 weeks
Procedure: (§1) Male, Wistar rats were obtained at 120-130 g, and placed on a 0.01% calcium, 0.7% phosphate diet that was vitamin D deficient (Teklad Test Diets, Madison, WI) this was for one week to help deplete vitamin D stores. For the next three weeks the rats were fed the vitamin D-deficient diet, but with normal, 0.5%, calcium. Starting with these 3 weeks, the rats were divided into four vitamin D3 -treatment groups, initially, nine rats per group: group a) supplemented once weekly with 0.6 μg vitamin D3 (average dose, 0.08 μg/day); group b) supplemented once every second day with vitamin D3 to provide 2 nmol/day, i.e., each dose was 4 nmol of vitamin D3; group c) supplemented once every second day with vitamin D3 to provide 8 μg/day. The preceding groups all received the vitamin D3 through an infant-feeding tube inserted through the mouth into the stomach. One group, d), received its vitamin D3 in the ethanol applied onto a shaved 2 cm×2 cm patch of skin on the back, this was done every second day to provide vitamin D3 at 8 μg/day. The volume of each dose of vitamin D3 given was adjusted so that the stated doses are per 250 g body weight. Over a second 3-week period while maintaining the described vitamin D3 dosing regimens, diet calcium content was changed weekly and blood sampling was started (that is, changes in calcium and sampling was from weeks 4 to 6, inclusive, of receiving the appropriate vitamin D3 supplement). Diet calcium was first dropped to 0.01% then raised to 1.5% and finally dropped again to 0.01%. For each week of dietary calcium manipulation, blood was obtained at day zero (the day of but just prior to the change in calcium), and days 1, 3, and 7 after the change. During the first week, 0.5 mL of blood was taken on the first two of these days and anticoagulated with heparin, the cells were isolated and resuspended in normal rat plasma and reinjected into the femoral vein. […] For the subsequent samplings, only 0.2-0.3 mL of blood was taken by bleeding from the tail into precalibrated microcentrifuge tubes. In this way, the bleeds prior to sacrifice removed a net total of less than 2 mL of blood, that is, less than or equal to 10% of the blood volume. Samples of daytime urine was collected into microfuge tubes that were fastened to the cones of metabolic collection funnels designed to hang under the wire cages. The cages and cones were rinsed with 0.1 mol/L hydrochloric acid prior to each collection. To eliminate contamination of the urine with diet, stool or water, the rats were placed into these separate cages only during the urine-collection period, until about 1 mL urine was present in the microfuge tube, this was typically within 5 min to one hour.
Biochemical measurements. 1,25(OH)2 D3 in serum was measured by calf-thymus receptor-binding assay after initial purification of 1,25(OH)2 D3 with C18-OH cartridges (5). For the serum volumes that were minimal, serum was measured out in 50 μL increments, and the final result was adjusted for the volume of sample analyzed. To measure 1α-hydroxylase in renal mitochondria, the incubation was as described previously, except the substrate was 20 μmol/L nonradioactive 25(OH)D3. The assay was stopped by addition of 2.5 mL methanol. To monitor recovery of 1,25 (OH)2 D3, 2000 cpm of [^3 H]--1,25(OH)2 D3 were added in 50 μL ethanol prior to further extraction with two additions of 1.25 mL methylene chloride. The methylene chloride layer was taken and evaporated to dryness, redissolved in hexane, isopropanol, methanol (90:9: 1) for purification by HPLC, Zorbax-Sil column. The material eluting as 1,25(OH)2 D3 was evaporated and redissolved in acetonitrile: water for further purification with C18-OH cartridges and quantitation by thymus receptor assay, as described for serum. Renal 24-hydroxylase was measured by incubating mitochondria with [^3 H]-25(OH)D3 as substrate (Vieth and Fraser, J Biol Chem. 254:12455-12460;1979). […]

[2] = Experiment 4: short-term serum 25(OH)D3 response to increasing vitamin D3 doses; format: in vivo, rats; conditions: first 48 hours
Procedure: Each point represents the mean ±SEM of 7 normal, 250-g rats;
Toxicity: Short-term responses to increasing doses of vitamin D3 given dermally or by gastric tube.
To compare the efficacy of increasing doses of vitamin D3 in the short term. A fatal oral vitamin D3 dose is 14 days of 2600 μg/day (Sheppard RM and DeLuca HF, Arch Biochem Biophys 1980; 202: 43-55). The present experiment was designed to compare effects of doses up to this level, given by gastric tube or dermally.

[3] = Experiment 3: serum calcium, phosphate, alkaline phosphatase and body weight after 6 weeks; format: in vivo, Male Wistar rats; conditions: for Serum Alkaline phosphatase: 6 weeks
Procedure: as §1, with “hour. […]” for “hour.”

Compound: C=C1CC[C@H](O)C/C1=C/C=C1\CCC[C@]2(C)[C@@H]([C@H](C)CCCC(C)C)CC[C@@H]12 [vitamin D3]
- difference between the two routes in activities of renal enzymes (24-hydroxylase) ([1]; 20 nmol/250 g/day): no significant difference between the two routes
- Renal mitochondria 24-hydroxylase ([1]; 0.08 μg/day diet): 1.34 pmol/mg/mi
- Renal mitochondria 24-hydroxylase ([1]; 0.8 μg/day G1 (gastric)): 3.67 pmol/mg/mi
- Renal mitochondria 24-hydroxylase ([1]; 8 μg/day G1 (gastric)): 8.88 pmol/mg/mi
- Renal mitochondria 24-hydroxylase ([1]; 8 μg/day dermal): 6.26 pmol/mg/mi
- 24-hydroxylase in kidney ([1]; 8 μg/day, gastric and dermal, vs groups with less vitamin D3): increased 24-hydroxylase in kidney
- serum 25(OH)D3 vs dose ([2]; dermal, 800 to 2600 μg): does not parallel the vitamin D3 dose beyond the 800 μg (2000 nmol)/day dose; also recorded: striking plateau
- serum 25(OH)D3 vs dose ([2]; gastric, up to 2600 μg): parallels the vitamin D3 dose; also recorded: increased in a direct parallel to the dose
- Serum Alkaline phosphatase ([3]; 0.08 μg/day diet): 119 U/L
- Serum Alkaline phosphatase ([3]; 0.8 μg/day G1 (gastric)): 151 U/L
- Serum Alkaline phosphatase ([3]; 8 μg/day G1 (gastric)): 147 U/L
- Serum Alkaline phosphatase ([3]; 8 μg/day dermal): 152 U/L
- body weight difference between groups ([3]; end of experiment 3): no weight differences between the groups
